Assay results as given in publication PMC10460844, “Real‐Time Monitoring of Multitarget Antimicrobial Mechanisms of Peptoids Using Label‐Free Imaging with Optical Diffraction Tomography” (Advanced Science, 2023).
Square brackets hold non-standard residues; d marks the D form. Peptide text beside a SMILES is read from it. Gly(N(CH2)2(3-indolyl)) = O=C(O)CNCCc1c[nH]c2ccccc12; Nspe = C[C@H](NCC(=O)O)c1ccccc1; Nlys = NCCCCNCC(=O)O

Test: Protein and DNA aggregation assay (thioflavin T)
Assay type: biochemical
Conditions: 29 25 µM, protein 500 µg mL^−1, gDNA 50 ng mL^−1, Th T 25 µM, 37 °C 1 h, ex 450 / em 485 nm
Description: bacteria were pelleted at 4,000 rpm for 10 minutes at 8 °C. The supernatant was removed and the pellet was suspended in 2 mL of PBS buffer. This suspension was transferred to a 15 mL conical tube and cooled on ice. The culture was sonicated for 5 sec and cooled again for 55 sec. This cycle was repeated 15 times. The lysate was centrifuged at 4,000 rpm for 20 minutes at 8 °C. The supernatant was transferred into a fresh 2 mL Eppendorf tube and stored at -80 °C. Protein quantification was performed using TaKaRa Bradford Protein Assay Kit according to the manufacturer’s instructions.
DNA extraction and quantification
DNA extraction was performed using TaKaRa MiniBEST Bacteria Genomic DNA Extraction Kit Ver. 3.0 according to the manufacturer’s instructions.
Protein and DNA aggregation assay
The flocculation of the proteins and DNA caused by peptoids was confirmed by the change in the fluorescent intensity of thioflavin T (Th T) that detects aggregated proteins and double stranded DNA. The appropriate combination of 500 μg/mL of protein solution, 50 ng/mL of genomic DNA, 25 μM of Th T, and 25 μM of peptoid 29 were added into a black 96-well plate in triplicate and incubated at 37 °C for an hour. After incubation, the fluorescence was measured using a microplate reader (excitation wavelength = 450 nm, emission wavelength = […]
[1] […]

C[C@@H](c1ccccc1)N(CC(=O)N(CCCCN)CC(=O)N(CCc1c[nH]c2ccccc12)CC(=O)N(CCc1c[nH]c2ccccc12)CC(N)=O)C(=O)CN(CCCCN)C(=O)CN(CCCCN)C(=O)CN(C(=O)CN(C(=O)CN(CCCCN)C(=O)CN(C(=O)CN(C(=O)CNCCCCN)[C@@H](C)c1ccccc1)[C@@H](C)c1ccccc1)[C@@H](C)c1ccccc1)[C@@H](C)c1ccccc1 [peptoid 29] (H-[Nlys][Nspe][Nspe][Nlys][Nspe][Nspe][Nlys][Nlys][Nspe][Nlys][Gly(N(CH2)2(3-indolyl))][Gly(N(CH2)2(3-indolyl))]-NH2)
Th T fluorescence of protein and protein/gDNA samples: significant increases in fluorescent emission
